This is an account of results in US6787541B1, “Thieno-and furopyrimidine derivatives as A2A-receptor antagonists” (Vernalis Research Limited, priority 1999, dated 2004).

Counter-ions that a name gives are not always drawn.

Usually melting point stands for the temperature, or range, at which the solid turns liquid.

`Cc1ccc(C(=O)c2nc(C(F)(F)F)nc3ccsc23)s1` came in with a melting point of 161 to 163 °C. On to `NCCNc1nc(C(=O)c2cccs2)c2sccc2n1` (as salt: hydrochloride) [Example 55, 2-(2-Aminoethylamino)thieno[3,2-d]pyrimidin-4-yl 2-thienylmethanone dihydrochloride], for which the melting point was > 190 °C (dec.). For the compound `CN(C)CCNc1nc(C(=O)c2cccs2)c2sccc2n1` (as salt: hydrochloride) [Example 66, 2-(2-Dimethylaminoethylamino)thieno[3,2-d]pyrimidin-4-yl 2-thienylmethanone dihydrochloride], the melting point was > 150 °C (dec.). The result for `CN(C)CC(=O)Nc1nc(C(=O)c2cccs2)c2sccc2n1` (as salt: hydrochloride) [Example 169, 2-Dimethylamino-N-(4-(2-thienylcarbonyl)thieno[3,2-d]pyrimidin-2-yl)acetamide hydrochloride] reads 151 °C; that for `O=C(c1cccc(Cl)c1)c1nc(C(F)(F)F)nc2ccsc12` [Example 9, 3-Chlorophenyl 2-trifluoromethylthieno[3,2-d]pyrimidin-4-ylmethanone], 128 to 130 °C; that for `O=C(c1cc(Cl)cc(Cl)c1)c1nc(C(F)(F)F)nc2ccsc12` [Example 10, 3,5-Dichlorophenyl 2-trifluoromethylthieno[3,2-d]pyrimidin-4-ylmethanone], 147 to 149 °C. In the case of `O=C(c1cc2ccccc2o1)c1nc(C(F)(F)F)nc2ccsc12` [Example 15, 2-Benzofuranyl 2-trifluoromethylthieno[3,2-d]pyrimidin-4-ylmethanone], the melting point is 221 to 223 °C.

Compound `Cc1csc2c(C(=O)c3cccs3)nc(Cl)nc12` [Example 24, 2-Chloro-7-methylthieno[3,2-d]pyrimidin-4-yl 2-thienylmethanone] returned a melting point of 188 to 190 °C.

`COc1ccc(C(=O)c2nc(C(F)(F)F)nc3ccsc23)cc1` [Example 27, 4-Methoxyphenyl 2-trifluoromethylthieno[3,2-d]pyrimidin-4-ylmethanone] yielded a melting point of 155 to 157 °C. `O=C(c1ccc(Cl)cc1)c1nc(C(F)(F)F)nc2ccsc12` [Example 30, 4-Chlorophenyl 2-trifluoromethylthieno[3,2-d]pyrimidin-4-ylmethanone] displayed a melting point of 127 to 128 °C. The result for `O=C(c1ccc([N+](=O)[O-])cc1)c1nc(C(F)(F)F)nc2ccsc12` [Example 31, 4-Nitrophenyl 2-trifluoromethylthieno[3,2-d]pyrimidin-4-ylmethanone] reads 185 to 186 °C; that for `Cc1cccc(C(=O)c2nc(C(F)(F)F)nc3ccsc23)c1` [Example 32, 3-Methylphenyl 2-trifluoromethylthieno[3,2-d]pyrimidin-4-ylmethanone], 131 to 133 °C; that for `CCc1nc(C(O)c2cccs2)c2sccc2n1` (stereo not drawn) [Example 36, 2-Ethyl-α-(2-thienyl)thieno[3,2-d]pyrimidine-4-methanol], 147 to 149 °C. Turning to `Cc1csc2c(C(=O)c3cccs3)nc(N(C)C)nc12` [Example 38, 2-Dimethylamino-7-methylthieno[3,2-d]pyrimidin-4-yl 2-thienylmethanone], the melting point was 156 to 158 °C. The compound `OC(c1cccs1)c1nc(C(F)(F)F)nc2ccsc12` (stereo not drawn) [Example 41, α-(2-Thienyl)-2-trifluoromethylthieno[3,2-d]pyrimidine-4-methanol] came in with a melting point of 157 to 158 °C. For `Cc1nc(C(O)c2cccs2)c2sccc2n1` (stereo not drawn) [Example 53, 2-Methyl-α-(2-thienyl)thieno[3,2-d]pyrimidine-4-methanol] the value was 144 to 146 °C. The result for `Cc1c(C(=O)c2nc(C(F)(F)F)nc3ccsc23)sc2ccccc12` [Example 62, 3-Methylbenzothiophene-2-yl 2-trifluoromethylthieno[3,2-d]pyrimidin-4-ylmethanone] reads 262 to 263 °C.

On to `CC(=O)NCCNc1nc(C(=O)c2cccs2)c2sccc2n1` [Example 90, N-(2-(4-(2-Thienylcarbonyl)thieno[3,2-d]pyrimidin-2-yl)aminoethyl)acetamide], for which the melting point was in the range of 212.2 to 212.5 °C. Regarding `O=C(c1cccs1)c1nc(NCc2ccco2)nc2ccsc12` [Example 96, 2-(2-Furylmethylamino)thieno[3,2-d]primidin-4-yl 2-thienylmethanone], the melting point was > 140 °C (dec.).

`CN(C)c1nc(C(=O)c2ccco2)c2sccc2n1` [Example 105, 2-Dimethylaminothieno[3,2-d]pyrimidin-4-yl 2-furylmethanone] displayed a melting point of 210 to 212 °C.

Turning to `O=C(c1cccnc1)c1nc(NCCO)nc2ccsc12` [Example 106, 2-(2-Hydroxyethylamino)thieno[3,2-d]pyrimidin-4-yl 3-pyridylmethanone], the melting point was in the range of 161 to 163 °C. For `O=C(c1cccs1)c1nc(N2CCCC2)nc2ccsc12` [Example 109, 2-(Pyrrolidin-1-yl)thieno[3,2-d]pyrimidin-4-yl 2-thienylmethanone] the value was 229.1 to 229.4 °C; for `COC(=O)[C@@H]1CCCN1c1nc(C(=O)c2cccs2)c2sccc2n1` [Example 115, (2S)-N-(4-(2-Thienylcarbonyl)thieno[3,2-d]pyrimidin-2-yl)proline methyl ester], 155.9 to 156.3 °C; for `Cc1ccsc1C(=O)c1nc(N(C)C)nc2ccsc12` [Example 117, 2-Dimethylaminothieno[3,2-d]pyrimidin-4-yl 3-methyl-2-thienylmethanone], 165.1 to 165.7 °C. In turn, `CC(C)(CO)Nc1nc(C(=O)c2cccs2)c2sccc2n1` [Example 119, 2-(1-Hydroxy-2-methyl-2-propylamino)thieno[3,2-d]pyrimidin-4-yl 2-thienylmethanone] registered a melting point of 126.4 to 127.1 °C. Compound `CN(CCN)c1nc(C(=O)c2cccs2)c2sccc2n1` [Example 120, 2-(N-(2-Aminoethyl)-N-methylamino)thieno[3,2-d]pyrimidin-4-yl 2-thienylmethanone] yielded a melting point of 151.6 to 152.4 °C. The result for `O=C(c1cccs1)c1nc(N2CCC[C@@H]2C(=O)O)nc2ccsc12` [Example 121, (2R)-N-(4-(2-Thienylcarbonyl)thieno[3,2-d]pyrimidin-2-yl)proline] reads > 131 °C (dec.); that for `CCOC(=O)c1nc(C(=O)c2cccs2)c2sccc2n1` [Example 122, Ethyl 4-(2-thienylcarbonyl)thieno[3,2-d]pyrimidin-2-carboxylate], 185.7 to 186.2 °C. Turning to `COC(=O)CNc1nc(C(=O)c2cccs2)c2sccc2n1` [Example 123, Methyl (4-(2-thienylcarbonyl)thieno[3,2-d]pyrimidin-2-ylamino)acetate], the melting point is 144.6 to 145.2 °C. The result for `NC(=O)CNc1nc(C(=O)c2cccs2)c2sccc2n1` [Example 125, (4-(2-Thienylcarbonyl)thieno[3,2-d]pyrimidin-2-ylamino)acetamide] reads 232.1 to 233.7 °C.

In turn, `COC(=O)c1nc(C(=O)c2cccs2)c2sccc2n1` [Example 126, Methyl 4-(2-thienylcarbonyl)thieno[3,2-d]pyrimidin-2-carboxylate] showed a melting point of 232.8 to 233 °C.
